Experimental data taken from PubChem BioAssay AID256 (DTP/NCI, 2004).
Where “and” joins values, the source holds several entries; their conditions need not be identical. Equal values may be shown once. Inconclusive results and toxic doses are left out.

System: CD2F1 mice, L1210 leukemia ip, survival T/C
Assay: NCI In Vivo Anticancer Drug Screen. Data for tumor model L1210 Leukemia (intraperitoneal) in CD2F1 (CDF1) mice
Details: higher = longer survival
Method in brief: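 Activity against a transplanted murine tumor was judged by comparing the compound group with a vehicle group. The outcome in the treated animals was divided by that in the controls.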

## COc1cccc2c1C(=O)c1c(O)c3c(c(O)c1C2=O)C[C@@](O)(/C(C)=N/NC(=O)c1ccccc1)C[C@@H]3OC1CC(N)C(O)C(C)O1 (stereo partly specified)
endpoint: mean survival time, dose: 0.5 mg/kg/injection, schedule: Q04DX003 (ip), vehicle: water
  T/C: 91 % of control
endpoint: mean survival time, dose: 0.65 mg/kg/injection, schedule: Q01DX009 (ip), vehicle: saline
  T/C: 117 % of control
endpoint: mean survival time, dose: 1.0 mg/kg/injection, schedule: Q01DX009 (ip), vehicle: water
  T/C: 107 % of control
endpoint: mean survival time, dose: 1.0 mg/kg/injection, schedule: Q04DX003 (ip), vehicle: water
  T/C: 91 % of control
endpoint: mean survival time, dose: 1.08 mg/kg/injection, schedule: Q01DX009 (ip), vehicle: saline
  T/C: 120 % of control
endpoint: mean survival time, dose: 2.0 mg/kg/injection, schedule: Q01DX009 (ip), vehicle: water
  T/C: 113 % of control
endpoint: mean survival time, dose: 2.0 mg/kg/injection, schedule: Q04DX003 (ip), vehicle: water
  T/C: 96 % of control
endpoint: mean survival time, dose: 3.0 mg/kg/injection, schedule: Q01DX009 (ip), vehicle: saline
  T/C: 150 % of control
endpoint: mean survival time, dose: 3.0 mg/kg/injection, schedule: Q04DX003 (ip), vehicle: saline
  T/C: 160 % of control
endpoint: mean survival time, dose: 4.0 mg/kg/injection, schedule: Q01DX009 (ip), vehicle: water
  T/C: 120 % of control
endpoint: mean survival time, dose: 4.0 mg/kg/injection, schedule: Q04DX003 (ip), vehicle: water
  T/C: 105 % of control
endpoint: mean survival time, dose: 5.0 mg/kg/injection, schedule: Q04DX003 (ip), vehicle: saline
  T/C: 163 % of control
endpoint: mean survival time, dose: 8.0 mg/kg/injection, schedule: Q01DX009 (ip), vehicle: saline
  T/C: 110 % of control
endpoint: mean survival time, dose: 8.0 mg/kg/injection, schedule: Q04DX003 (ip), vehicle: water
  T/C: 124 % of control
endpoint: mean survival time, dose: 22.2 mg/kg/injection, schedule: Q04DX003 (ip), vehicle: saline
  T/C: 103 % of control
endpoint: median survival time, dose: 0.13 mg/kg/injection, schedule: Q03HX008 (ip), vehicle: water
  T/C: 106 % of control
endpoint: median survival time, dose: 0.13 mg/kg/injection, schedule: Q03HX016 (ip), vehicle: water
  T/C: 97 % of control
endpoint: median survival time, dose: 0.13 mg/kg/injection, schedule: Q03HX024 (ip), vehicle: water
  T/C: 106 % of control
endpoint: median survival time, dose: 0.25 mg/kg/injection, schedule: Q03HX008 (ip), vehicle: water
  T/C: 107 % of control
endpoint: median survival time, dose: 0.25 mg/kg/injection, schedule: Q03HX016 (ip), vehicle: water
  T/C: 104 % of control
endpoint: median survival time, dose: 0.25 mg/kg/injection, schedule: Q03HX024 (ip), vehicle: water
  T/C: 112 % of control
endpoint: median survival time, dose: 0.5 mg/kg/injection, schedule: Q01DX009 (ip), vehicle: water
  T/C: 105 % of control
endpoint: median survival time, dose: 0.5 mg/kg/injection, schedule: Q01DX009 (sc), vehicle: water
  T/C: 101 % of control
endpoint: median survival time, dose: 0.5 mg/kg/injection, schedule: Q03HX008 (ip), vehicle: water
  T/C: 114 % of control
endpoint: median survival time, dose: 0.5 mg/kg/injection, schedule: Q03HX016 (ip), vehicle: water
  T/C: 105 % of control
endpoint: median survival time, dose: 0.5 mg/kg/injection, schedule: Q03HX024 (ip), vehicle: water
  T/C: 115 % of control
endpoint: median survival time, dose: 0.5 mg/kg/injection, schedule: Q04DX003 (ip), vehicle: water
  T/C: 100 % of control
endpoint: median survival time, dose: 1.0 mg/kg/injection, schedule: Q01DX001 (ip), vehicle: water
  T/C: 98 % of control
endpoint: median survival time, dose: 1.0 mg/kg/injection, schedule: Q01DX001 (sc), vehicle: water
  T/C: 96 % of control
endpoint: median survival time, dose: 1.0 mg/kg/injection, schedule: Q01DX009 (ip), vehicle: water
  T/C: 106 % of control
endpoint: median survival time, dose: 1.0 mg/kg/injection, schedule: Q01DX009 (sc), vehicle: water
  T/C: 97 % of control
endpoint: median survival time, dose: 1.0 mg/kg/injection, schedule: Q03HX008 (ip), vehicle: water
  T/C: 118 % of control
endpoint: median survival time, dose: 1.0 mg/kg/injection, schedule: Q03HX016 (ip), vehicle: water
  T/C: 109 % of control
endpoint: median survival time, dose: 1.0 mg/kg/injection, schedule: Q04DX003 (ip), vehicle: water
  T/C: 116 % of control and 111 % of control
endpoint: median survival time, dose: 1.0 mg/kg/injection, schedule: Q08DX002 (ip), vehicle: water
  T/C: 107 % of control
endpoint: median survival time, dose: 2.0 mg/kg/injection, schedule: Q01DX001 (ip), vehicle: water
  T/C: 105 % of control
endpoint: median survival time, dose: 2.0 mg/kg/injection, schedule: Q01DX001 (sc), vehicle: water
  T/C: 102 % of control
endpoint: median survival time, dose: 2.0 mg/kg/injection, schedule: Q01DX009 (ip), vehicle: water
  T/C: 116 % of control
endpoint: median survival time, dose: 2.0 mg/kg/injection, schedule: Q01DX009 (sc), vehicle: water
  T/C: 97 % of control
endpoint: median survival time, dose: 2.0 mg/kg/injection, schedule: Q04DX003 (ip), vehicle: water
  T/C: 103 % of control and 112 % of control
endpoint: median survival time, dose: 2.0 mg/kg/injection, schedule: Q08DX002 (ip), vehicle: water
  T/C: 107 % of control
endpoint: median survival time, dose: 4.0 mg/kg/injection, schedule: Q01DX001 (ip), vehicle: water
  T/C: 113 % of control
endpoint: median survival time, dose: 4.0 mg/kg/injection, schedule: Q01DX001 (sc), vehicle: water
  T/C: 98 % of control
endpoint: median survival time, dose: 4.0 mg/kg/injection, schedule: Q01DX009 (oral), vehicle: water
  T/C: 98 % of control
endpoint: median survival time, dose: 4.0 mg/kg/injection, schedule: Q01DX009 (sc), vehicle: water
  T/C: 97 % of control
endpoint: median survival time, dose: 4.0 mg/kg/injection, schedule: Q03HX016 (ip), vehicle: water
  T/C: 124 % of control
endpoint: median survival time, dose: 4.0 mg/kg/injection, schedule: Q03HX024 (ip), vehicle: water
  T/C: 104 % of control
endpoint: median survival time, dose: 4.0 mg/kg/injection, schedule: Q04DX003 (ip), vehicle: water
  T/C: 124 % of control
endpoint: median survival time, dose: 4.0 mg/kg/injection, schedule: Q08DX002 (ip), vehicle: water
  T/C: 113 % of control
endpoint: median survival time, dose: 8.0 mg/kg/injection, schedule: Q01DX001 (ip), vehicle: water
  T/C: 117 % of control
endpoint: median survival time, dose: 8.0 mg/kg/injection, schedule: Q01DX001 (sc), vehicle: water
  T/C: 98 % of control
endpoint: median survival time, dose: 8.0 mg/kg/injection, schedule: Q01DX009 (oral), vehicle: water
  T/C: 95 % of control
endpoint: median survival time, dose: 8.0 mg/kg/injection, schedule: Q01DX009 (sc), vehicle: water
  T/C: 103 % of control
endpoint: median survival time, dose: 8.0 mg/kg/injection, schedule: Q08DX002 (ip), vehicle: water
  T/C: 124 % of control
endpoint: median survival time, dose: 16.0 mg/kg/injection, schedule: Q01DX001 (oral), vehicle: water
  T/C: 97 % of control
endpoint: median survival time, dose: 16.0 mg/kg/injection, schedule: Q01DX001 (sc), vehicle: water
  T/C: 97 % of control
endpoint: median survival time, dose: 16.0 mg/kg/injection, schedule: Q01DX009 (oral), vehicle: water
  T/C: 97 % of control
endpoint: median survival time, dose: 16.0 mg/kg/injection, schedule: Q01DX009 (sc), vehicle: water
  T/C: 108 % of control
endpoint: median survival time, dose: 16.0 mg/kg/injection, schedule: Q04DX003 (ip), vehicle: water
  T/C: 124 % of control
endpoint: median survival time, dose: 32.0 mg/kg/injection, schedule: Q01DX001 (ip), vehicle: water
  T/C: 155 % of control
endpoint: median survival time, dose: 32.0 mg/kg/injection, schedule: Q01DX001 (oral), vehicle: water
  T/C: 96 % of control
endpoint: median survival time, dose: 32.0 mg/kg/injection, schedule: Q01DX001 (sc), vehicle: water
  T/C: 108 % of control
endpoint: median survival time, dose: 32.0 mg/kg/injection, schedule: Q04DX003 (ip), vehicle: water
  T/C: 106 % of control
endpoint: median survival time, dose: 64.0 mg/kg/injection, schedule: Q01DX001 (oral), vehicle: water
  T/C: 103 % of control
endpoint: median survival time, dose: 128.0 mg/kg/injection, schedule: Q01DX001 (oral), vehicle: water
  T/C: 102 % of control
endpoint: median survival time, dose: 256.0 mg/kg/injection, schedule: Q01DX001 (oral), vehicle: water
  T/C: 102 % of control
